# Structures can show the parent of a compound that is named as a salt.
# System: commercially available normal plasma (Coagtrol N)
# Test: Fibrinogen measurement by thrombin time method: coagulation time and change in scattered light intensity of normal plasma after adding thrombin reagent
# Assay type: biochemical
# Settings: for coagulation time versus addition amount (FIG. 3): agent added to HEPES buffer (pH 7.5) specimen diluent, buffer alone 4.6 seconds
# Protocol: When a fibrinogen concentration in a plasma specimen is measured by a thrombin time method, in general, thrombin is added to plasma to measure a coagulation time, and the concentration is determined from a standard curve prepared using standard solutions having known fibrinogen concentrations. In the procedure, 90 μL of a specimen diluent are added to and mixed with 10 μL of specimen plasma, subsequently 50 μL of a thrombin-containing reagent are added as a blood coagulation activator-containing reagent, and a coagulation time is measured.
# In this example, commercially available normal plasma (Coagtrol N, manufactured by Sysmex Corporation) as the plasma specimen, a Coagpia Fbg thrombin reagent (manufactured by Sekisui Medical Co., Ltd.) as the thrombin-containing reagent, and a full-automated blood coagulation time analyzer Coagrex 800 (manufactured by Sysmex Corporation) as a coagulation time measurement apparatus were used. This apparatus employs a scattered light detection method, and change data of scattered light intensity with time can also be obtained along with the coagulation time.
# When an HEPES buffer (pH 7.5) was used as the specimen diluent, the commercially available normal plasma coagulated in several seconds (4.6 seconds).
# Commercially available normal plasma was measured in the same manner as in Example 1 using the specimen diluent (HEPES buffer, pH 7.5) in which the amount of the blood coagulation time prolonging agent added was adjusted so as to obtain the similar coagulation time. The comparative results of the maximum of a change ΔH in scattered light intensity and of the simultaneous reproducibility of the measurements between in the conventional method and in the present invention were shown in Table 1.
# A specimen diluent containing sodium chloride as the blood coagulation time prolonging agent was defined as a conventional method A and a specimen diluent further containing polyethylene glycol (molecular weight: 20000) (hereinafter, referred to as PEG 20000) as an enhancer of a change in light intensity in the conventional method A was defined as a conventional method B, and the specimen diluents were compared with a specimen diluent employing aminoguanidine hydrochloride (present invention) which served as both of the blood coagulation time prolonging agent and the enhancer of a change in light intensity. It should be noted that an HEPES buffer (pH 7.5) was used as a buffer in all of the cases. Further, the concentration of PEG 20000 to be added in the conventional method B was set to 0.1%, because a large amount of PEG 20000 could increase the viscosity of diluent and reduce the accuracy of sampling. The coagulation time of commercially available normal plasma was measured in the same manner as in Example 1 using each specimen diluent. The change of the scattered light intensity in the conventional method B with the addition of PEG 20000 became larger than in the conventional method A without the addition.
# [1] = Table 1, agent in specimen diluent (HEPES buffer pH 7.5): NaCl 145 mM, NaBr 110, KBr 105, KCl 135, LiCl 135, guanidine HCl 90, guanidine phosphate 30, guanidine sulfamate 55, aminoguanidine HCl 90, arginine HCl 55, arginine methyl ester 17 mM, single measurement for conventional methods (2)-(5), ten times for the others
# [2] = Table 2, specimen diluent HEPES buffer pH 7.5, NaCl 150 mM (A), NaCl 150 mM + PEG 20000 0.1% (B), aminoguanidine hydrochloride 90 mM, mean of three times measurement
Structure (SMILES),Coagulation time [1] [s],Coagulation time [2] [s],coagulation time versus addition amount (FIG. 3)
N=C(N)NN [Aminoguanidine hydrochloride],9.7,10.4,prolonged in an addition concentration-dependent manner
Cl.N=C(N)NCCC[C@H](N)C(=O)O [Arginine hydrochloride],10.3,,
COC(=O)[C@@H](N)CCCNC(=N)N [Arginine methyl ester],11,,
N=C(N)N [Guanidine hydrochloride],10.3,,
N=C(N)N.O=P(O)(O)O [Guanidine phosphate],10.4,,
N=C(N)N.NS(=O)(=O)O [Guanidine sulfamate],11.2,,
[Cl-].[Li+] [Lithium chloride],10.8,,
[Br-].[K+] [Potassium bromide],11.4,,
[Cl-].[K+] [Potassium chloride],10.8,,
[Br-].[Na+] [Sodium bromide],11.3,,prolonged in an addition concentration-dependent manner
[Cl-].[Na+] [Sodium chloride],10.7,11.6,prolonged in an addition concentration-dependent manner

# Reference: patent US9733262B2, “Method for measuring blood coagulation” (SEKISUI MEDICAL CO., LTD., priority 2009, dated 2017)
